Source: ChEMBL document CHEMBL5634109, “Synthesis and mechanism of action of new purine derivatives against triple negative breast cancer” (Eur J Med Chem, 2023)
Activity calls are given as the source filed them. The rule behind the calls is not given here.

Tests used:
A549 = assay: Antiproliferative activity against human A549 cells assessed as reduction in cell viability measured for 48 hrs by MTT assay; type: functional, cell-based; conditions: A549, 48 h
[1] = target: Dual specificity tyrosine-phosphorylation-regulated kinase 1A (Homo sapiens, UniProt Q13627); assay: Inhibition of DYRK1A (unknown origin)
MCF7 = assay: Antiproliferative activity against human MCF7 cells assessed as reduction in cell viability measured for 48 hrs by MTT assay; type: functional, cell-based; conditions: MCF7, 48 h
HepG2 = assay: Antiproliferative activity against human HepG2 cells assessed as reduction in cell viability measured for 48 hrs by MTT assay; type: functional, cell-based; conditions: HepG2, 48 h
[2] = target: T1, Cyclin-dependent kinase 7 (Homo sapiens, UniProt P50613); assay: Inhibition of CDK7 (unknown origin)
T1 sequence (P50613 whole entry): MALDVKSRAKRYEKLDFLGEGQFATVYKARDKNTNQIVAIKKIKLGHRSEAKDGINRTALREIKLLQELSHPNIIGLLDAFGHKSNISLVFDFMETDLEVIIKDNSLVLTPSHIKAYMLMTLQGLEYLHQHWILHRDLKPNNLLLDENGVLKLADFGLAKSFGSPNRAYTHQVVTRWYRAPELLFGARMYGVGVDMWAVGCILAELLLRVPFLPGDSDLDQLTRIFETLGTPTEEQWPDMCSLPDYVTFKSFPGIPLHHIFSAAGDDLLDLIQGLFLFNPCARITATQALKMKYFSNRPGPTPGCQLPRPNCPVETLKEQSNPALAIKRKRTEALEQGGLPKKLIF

NCI-H1299 = assay: Antiproliferative activity against human NCI-H1299 cells assessed as reduction in cell viability measured for 48 hrs by MTT assay; type: functional, cell-based; conditions: NCI-H1299, 48 h
PC-3 = assay: Antiproliferative activity against human PC-3 cells assessed as reduction in cell viability measured for 48 hrs by MTT assay; type: functional, cell-based; conditions: PC-3, 48 h
MGC-803 = assay: Antiproliferative activity against human MGC-803 cells assessed as reduction in cell viability measured for 48 hrs by MTT assay; type: functional, cell-based; conditions: MGC-803, 48 h
[3] = target: Casein kinase I isoform epsilon (Homo sapiens, UniProt P49674); assay: Inhibition of CK1epsilon (unknown origin)
Casein kinase I isoform epsilon, sequence (P49674 whole entry, canonical isoform): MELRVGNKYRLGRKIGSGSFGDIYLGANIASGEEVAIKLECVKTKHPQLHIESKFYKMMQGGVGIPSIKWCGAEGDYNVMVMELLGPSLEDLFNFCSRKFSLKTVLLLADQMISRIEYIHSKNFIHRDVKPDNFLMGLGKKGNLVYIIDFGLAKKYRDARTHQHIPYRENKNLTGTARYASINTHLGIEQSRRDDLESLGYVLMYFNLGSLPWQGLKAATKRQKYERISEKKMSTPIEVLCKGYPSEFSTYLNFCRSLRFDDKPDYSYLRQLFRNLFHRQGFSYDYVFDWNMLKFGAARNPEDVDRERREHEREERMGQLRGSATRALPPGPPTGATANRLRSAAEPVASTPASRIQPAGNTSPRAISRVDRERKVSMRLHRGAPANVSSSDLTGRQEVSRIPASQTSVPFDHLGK

[4] = target: T2, Dual specificity protein kinase CLK2 (Homo sapiens, UniProt P49760); assay: Inhibition of CLK2 (unknown origin)
Target sequence in this assay (P49760 whole entry): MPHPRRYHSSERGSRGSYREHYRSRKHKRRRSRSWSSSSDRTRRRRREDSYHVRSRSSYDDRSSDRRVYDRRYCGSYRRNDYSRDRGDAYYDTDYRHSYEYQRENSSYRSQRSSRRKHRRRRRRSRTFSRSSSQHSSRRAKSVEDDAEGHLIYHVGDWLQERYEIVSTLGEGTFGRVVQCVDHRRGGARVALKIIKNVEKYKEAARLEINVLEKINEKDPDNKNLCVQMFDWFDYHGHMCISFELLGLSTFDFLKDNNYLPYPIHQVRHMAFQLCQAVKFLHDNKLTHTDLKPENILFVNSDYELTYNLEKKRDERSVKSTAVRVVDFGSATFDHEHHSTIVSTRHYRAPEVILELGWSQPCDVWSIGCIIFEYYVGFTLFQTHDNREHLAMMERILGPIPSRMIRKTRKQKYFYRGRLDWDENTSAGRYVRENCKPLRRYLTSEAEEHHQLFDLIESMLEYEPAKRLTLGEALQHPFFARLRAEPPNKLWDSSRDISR

[5] = target: T3, Dual specificity protein kinase CLK4 (Homo sapiens, UniProt Q9HAZ1); assay: Inhibition of CLK4 (unknown origin)
Target sequence in this assay (Q9HAZ1 whole entry): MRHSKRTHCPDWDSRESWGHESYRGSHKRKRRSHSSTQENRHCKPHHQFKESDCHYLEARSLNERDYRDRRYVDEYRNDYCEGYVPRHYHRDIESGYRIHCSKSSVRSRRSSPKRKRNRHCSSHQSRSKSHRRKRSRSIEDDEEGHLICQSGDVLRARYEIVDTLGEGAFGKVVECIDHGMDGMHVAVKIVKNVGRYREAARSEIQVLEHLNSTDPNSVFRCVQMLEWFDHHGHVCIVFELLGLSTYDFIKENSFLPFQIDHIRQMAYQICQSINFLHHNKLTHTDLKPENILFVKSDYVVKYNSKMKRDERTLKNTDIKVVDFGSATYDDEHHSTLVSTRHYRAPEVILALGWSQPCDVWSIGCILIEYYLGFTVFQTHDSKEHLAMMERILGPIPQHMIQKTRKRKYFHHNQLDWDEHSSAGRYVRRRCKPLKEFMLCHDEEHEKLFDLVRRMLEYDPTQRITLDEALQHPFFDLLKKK

K562 = assay: Antiproliferative activity against human K562 cells assessed as reduction in cell viability measured for 48 hrs by MTT assay; type: functional, cell-based; conditions: K562, 48 h
HCT-116 = assay: Antiproliferative activity against human HCT-116 cells assessed as reduction in cell viability measured for 48 hrs by MTT assay; type: functional, cell-based; conditions: HCT-116, 48 h
HT-29 = assay: Antiproliferative activity against human HT-29 cells assessed as reduction in cell viability measured for 48 hrs by MTT assay; type: functional, cell-based; conditions: HT-29, 48 h
[6] = target: Dual specificity protein kinase CLK1 (Homo sapiens, UniProt P49759); assay: Inhibition of CLK1 (unknown origin)
Dual specificity protein kinase CLK1, sequence (P49759 whole entry): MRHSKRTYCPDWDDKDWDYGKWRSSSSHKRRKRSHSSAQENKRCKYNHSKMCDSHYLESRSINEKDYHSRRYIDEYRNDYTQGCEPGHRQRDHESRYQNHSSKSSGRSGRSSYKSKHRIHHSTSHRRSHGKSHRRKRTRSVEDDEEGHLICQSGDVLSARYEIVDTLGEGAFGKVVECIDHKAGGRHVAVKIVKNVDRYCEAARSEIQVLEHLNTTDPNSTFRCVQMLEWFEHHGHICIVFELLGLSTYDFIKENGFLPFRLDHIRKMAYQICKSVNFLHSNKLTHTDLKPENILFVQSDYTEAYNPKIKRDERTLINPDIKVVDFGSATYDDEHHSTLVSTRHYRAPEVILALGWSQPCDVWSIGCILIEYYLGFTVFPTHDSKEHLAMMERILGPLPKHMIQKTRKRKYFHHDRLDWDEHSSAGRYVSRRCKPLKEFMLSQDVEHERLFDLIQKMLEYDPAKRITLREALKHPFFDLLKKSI

MDA-MB-468 = assay: Antiproliferative activity against human MDA-MB-468 cells assessed as reduction in cell viability measured for 48 hrs by MTT assay; type: functional, cell-based; conditions: MDA-MB-468, 48 h
[7] = Antiproliferative activity against human HUVEC cells assessed as reduction in cell viability measured for 48 hrs by MTT assay; type: toxicity, cell-based
[8] = Antiproliferative activity against human HEK293 cells assessed as reduction in cell viability measured for 48 hrs by MTT assay; type: toxicity, cell-based
MDA-MB-231 [9] = assay: Antiproliferative activity against human MDA-MB-231 cells assessed as reduction in cell viability measured for 48 hrs by MTT assay; type: functional, cell-based; conditions: MDA-MB-231, 48 h
[10] = target: T4, Cyclin-dependent kinase 2/cyclin E1 (Homo sapiens) (UniProt P24864+P24941); assay: Inhibition of CDK2/Cyclin E (unknown origin) at 1 uM relative to control; type: protein-complex assay
[11] = target: T5, Cyclin-dependent kinase 5/CDK5 activator 1 (Homo sapiens) (UniProt Q00535+Q15078); assay: Inhibition of CDK5/P25 (unknown origin) at 10 uM relative to control; type: protein-complex assay
T5 sequence (Q00535 whole entry): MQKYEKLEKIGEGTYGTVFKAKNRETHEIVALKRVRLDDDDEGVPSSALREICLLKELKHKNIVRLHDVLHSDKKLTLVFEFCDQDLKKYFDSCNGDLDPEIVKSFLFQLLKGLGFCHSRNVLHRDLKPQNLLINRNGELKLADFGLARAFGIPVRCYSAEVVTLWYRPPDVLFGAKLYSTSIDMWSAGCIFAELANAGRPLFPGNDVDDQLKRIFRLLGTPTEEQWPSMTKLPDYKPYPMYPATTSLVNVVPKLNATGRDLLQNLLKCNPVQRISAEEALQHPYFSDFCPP
T5 sequence (Q15078 99-307 partner limits assumed): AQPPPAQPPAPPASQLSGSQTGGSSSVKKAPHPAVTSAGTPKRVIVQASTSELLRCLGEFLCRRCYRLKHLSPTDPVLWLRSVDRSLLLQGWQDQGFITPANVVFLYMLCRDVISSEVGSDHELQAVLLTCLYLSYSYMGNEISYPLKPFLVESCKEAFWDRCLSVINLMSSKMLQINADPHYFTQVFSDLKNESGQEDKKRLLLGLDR

[12] = target: T1, Cyclin-dependent kinase 7; assay: Inhibition of CDK7 (unknown origin) at 1 uM relative to control
[13] = target: T4, Cyclin-dependent kinase 2/cyclin E1 (Homo sapiens); assay: Inhibition of CDK2/Cyclin E (unknown origin) at 10 uM relative to control; type: protein-complex assay
[14] = target: T5, Cyclin-dependent kinase 5/CDK5 activator 1 (Homo sapiens); assay: Inhibition of CDK5/P25 (unknown origin) at 1 uM relative to control; type: protein-complex assay
[15] = target: T2, Dual specificity protein kinase CLK2; assay: Inhibition of CLK2 (unknown origin) at 10 uM relative to control
Target sequence in this assay (P49760 whole entry, looked up): as the sequence (P49760 whole entry) above

[16] = target: Cyclin-dependent kinase 9 (Homo sapiens) (UniProt P50750); assay: Inhibition of CDK9 (unknown origin) at 10 uM relative to control
Cyclin-dependent kinase 9 (Homo sapiens), sequence (P50750 whole entry): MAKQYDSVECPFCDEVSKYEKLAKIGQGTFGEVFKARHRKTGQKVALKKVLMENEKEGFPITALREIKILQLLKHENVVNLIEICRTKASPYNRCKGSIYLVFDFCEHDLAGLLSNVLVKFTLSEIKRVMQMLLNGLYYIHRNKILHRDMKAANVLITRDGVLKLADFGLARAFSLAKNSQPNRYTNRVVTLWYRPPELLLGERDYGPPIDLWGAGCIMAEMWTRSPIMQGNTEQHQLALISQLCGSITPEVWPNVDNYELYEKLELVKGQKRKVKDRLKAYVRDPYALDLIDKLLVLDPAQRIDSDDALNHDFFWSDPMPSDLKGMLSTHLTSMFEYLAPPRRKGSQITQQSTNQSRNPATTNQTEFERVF

[17] = target: T3, Dual specificity protein kinase CLK4; assay: Inhibition of CLK4 (unknown origin) at 1 uM relative to control
Target sequence in this assay (Q9HAZ1 whole entry, looked up): as the sequence (Q9HAZ1 whole entry) above

[18] = target: T1, Cyclin-dependent kinase 7; assay: Inhibition of CDK7 (unknown origin) at 10 uM relative to control
[19] = target: T2, Dual specificity protein kinase CLK2; assay: Inhibition of CLK2 (unknown origin) at 1 uM relative to control
Target sequence in this assay (P49760 whole entry, looked up): as the sequence (P49760 whole entry) above

[20] = target: T3, Dual specificity protein kinase CLK4; assay: Inhibition of CLK4 (unknown origin) at 10 uM relative to control
Target sequence in this assay (Q9HAZ1 whole entry, looked up): as the sequence (Q9HAZ1 whole entry) above

[21] = target: Cyclin-dependent kinase 9 (Homo sapiens) (UniProt P50750); assay: Inhibition of CDK9 (unknown origin) at 1 uM relative to control
MDA-MB-231 [22] = assay: Inhibition of cell migration human MDA-MB-231 cells assessed as migration distance at 25 uM incubated for 48 hrs by wound healing assay (reference value: 642.72 micrometer); type: functional
MDA-MB-231 [23] = assay: Inhibition of cell migration human MDA-MB-231 cells at 0.01 to 0.4 uM incubated for 20 hrs by DAPI staining based analysis; type: functional; conditions: dose 0.01-0.4 µM
HUVEC = assay: Antiangiogenesis activity in HUVEC cells at 125 nM incubated for 12 hrs by microscopic analysis; type: functional, cell-based; conditions: Homo sapiens
MDA-MB-231 [24] = assay: Inhibition of cell migration human MDA-MB-231 cells assessed as migration distance at 25 uM incubated for 24 hrs by wound healing assay (reference value: 642.72 micrometer); type: functional
MDA-MB-231 [25] = assay: Induction of ROS generation in human MDA-MB-231 cells assessed as increase in intracellular ROS level at 40 uM incubated for 48 hrs by DCFH-DA staining based fluorescence microscopic analysis (Rvb= 24.7%); type: functional
Cell membrane = assay: Induction of mitochondrial membrane potential loss in human MDA-MB-231 cells assessed as increase in fluorescence intensity at 40 uM incubated for 48 hrs by TMRM dye based flow cytometry analysis (reference value: 97.5%)

Compound | IC50 (A549) [µM] | IC50 [1] [µM] | IC50 (MCF7) [µM] | IC50 (HepG2) [µM] | IC50 [2] [µM] | IC50 (NCI-H1299) [µM] | IC50 (PC-3) [µM] | IC50 (MGC-803) [µM] | IC50 [3] [µM] | IC50 [4] [µM] | IC50 [5] [µM] | IC50 (K562) [µM] | IC50 (HCT-116) [µM] | IC50 (HT-29) [µM] | IC50 [6] [µM] | also measured
CC(C)n1cnc2c(NCc3ccc(F)c(F)c3)nc(N3CCC(C4CCN(CCO)CC4)CC3)nc21 | 2.49 | 0.79 | 3.05 | 3.05 | 0.597 | 19.6 | 3.95 | 5.07 | 0.415 | 0.08 | 0.31 | 0.44 | 2.8 | 3.47 | 0.949 | –
CC(C)n1cnc2c(NCc3cc(F)cnc3Cl)nc(N3CCC(C4CCN(CCO)CC4)CC3)nc21 | 0.45 | – | 6.03 | 6.91 | – | 2.75 | – | 6.78 | – | – | – | 0.29 | 0.35 | 2.39 | – | IC50 (MDA-MB-468): 4.07 µM; IC50 at 48 h [7]: 1.55 µM; IC50 at 48 h [8]: 0.46 µM; IC50 (MDA-MB-231 [9]): 0.4 µM
OCCN1CCC(C2CCN(c3nc(NCc4cc(F)cc(F)c4)c4ncn(C5CCCC5)c4n3)CC2)CC1 | 2.33 | – | 2.93 | 4.43 | – | 6.49 | 4.36 | 5.7 | – | – | – | 2.54 | 41.9 | 3.41 | – | –
CC(C)n1cnc2c(NCc3ccccc3)nc(N3CCC(C4CCN(CCO)CC4)CC3)nc21 | – | 0.877 | – | 1.82 | 0.143 | – | – | – | 0.771 | 0.068 | 0.158 | – | 2.23 | 3.17 | 0.412 | inhibition [10]: 2%; inhibition [11]: 42%; inhibition [12]: 88%; inhibition [13]: 49%; inhibition [14]: 4%; inhibition [15]: 99%; inhibition [16]: 40%; inhibition [17]: 92%; inhibition [18]: 96%; inhibition [19]: 99%; inhibition [20]: 97%; inhibition [21]: 8%
CC[C@H](CO)Nc1nc(NCc2ccccc2)c2ncn(C(C)C)c2n1 [SELICICLIB] | > 100 | – | > 100 | > 100 | – | 83 | > 100 | > 100 | – | – | – | > 100 | 17.3 | > 100 | – | Activity (MDA-MB-231 [22]): 453.91 um; inhibition (MDA-MB-231 [23]): Active; Activity (HUVEC): Active; Activity (MDA-MB-231 [24]): 348.27 um; Activity (MDA-MB-231 [25]): 21.8%; Activity (Cell membrane): 87.5%
CC(C)n1cnc2c(NCc3ccncc3)nc(N3CCC(C4CCN(CCO)CC4)CC3)nc21 | 34.7 | – | 10.1 | 58.8 | – | 38.7 | – | > 100 | – | – | – | 31 | 24.4 | 35.9 | – | –
CC(C)n1cnc2c(NCc3cccnc3Cl)nc(N3CCC(C4CCN(CCO)CC4)CC3)nc21 | > 100 | – | > 100 | > 100 | – | > 100 | – | > 100 | – | – | – | > 100 | 54.5 | > 100 | – | –
OCCN1CCC(C2CCN(c3nc(NCc4ccc(Cl)c(F)c4)c4ncn(C5CCCC5)c4n3)CC2)CC1 | 3.54 | 0.445 | 2.83 | 1.75 | 2.04 | 4.77 | 7.2 | 19.9 | 0.193 | 0.058 | 0.126 | 2.63 | 2.95 | 4.21 | 0.78 | –
CC(C)n1cnc2c(NCc3ccccn3)nc(N3CCC(C4CCN(CCO)CC4)CC3)nc21 | 38.4 | 0.208 | 44.5 | 76.1 | 0.043 | 53.4 | – | > 100 | 0.167 | 0.02 | 0.047 | 28.7 | 22.8 | 53.9 | 0.173 | –
CC[C@@]1(O)C(=O)OCc2c1cc1n(c2=O)Cc2cc3ccccc3nc2-1 [CAMPTOTHECIN] | 5.5 | – | 6.39 | – | – | > 100 | > 100 | > 100 | – | – | – | 0.08 | 0.21 | 0.19 | – | IC50 (MDA-MB-468): > 100 µM; IC50 at 48 h [7]: 0.04 µM; IC50 at 48 h [8]: 0.81 µM; IC50 (MDA-MB-231 [9]): > 100 µM
